TGI and GI50 data for 28 compounds are collected here from PubChem BioAssay (NCI).

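Growth conditions: 96-well plates. Treatment: test compound, 48 hours, 5 concentrations. Analysis: linear interpolation between bracketing concentrations; unreached endpoints set to highest concentration. Here, GI50 denotes the concentration required for 50% inhibition of growth. TGI is the concentration that stops growth completely.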

Common to all, as to test: inhibition of tumour cell growth, NCI panel, 48 h
For assay [1], the system named is SN12C renal.
For assay [2], the system named is HCT-15 colon.
In assay [3] the test system is M14 melanoma.
The test system of assay [4] is NCI-H522 lung.
Assay [5] has as its system HCT-116 colon.
The subject of assay [6] is SNB-19 CNS.
For assay [7], the system named is SK-MEL-5 melanoma.
Assay [8] concerns PC-3 prostate.
In assay [9] the test system is HT29 colon.
Assay [10] concerns OVCAR-3 ovarian.

In the case of `Nc1ccc(-c2nc3ccccc3s2)cc1C(F)(F)F`, the TGI was determined as 27.3 µM in assay [1]; 27.6 µM in assay [2]; 28.7 µM in assay [3]; 31.6 µM in assay [4]; 26.1 µM in [5]; 33.2 µM in [6]. Further, the TGI is 30.6 µM in assay [7], 29.1 µM in assay [8], 29.1 µM in assay [9] and 30.2 µM in assay [10].
`N#CC(N=Nc1ccc(Cl)cc1)c1nc2ccccc2o1` (stereo not drawn): the TGI in assay [1] was > 100 µM; in assay [2], > 100 µM; in [3], > 100 µM; in assay [4], 81.1 µM; in assay [5], > 100 µM; in [6] it was > 100 µM. Moreover, the TGI in [7], in [8], in assay [9] and in assay [10] was > 100 µM in each case.
On to `CCOC(=O)C1(C(=O)OCC)COS(=O)OC1`, for which the TGI is > 100 µM in assay [1]; 54.6 µM in assay [2]; > 100 µM in [3]; 2.1 µM in [4]; 31.2 µM in assay [5]; > 100 µM in [6]. The TGI was > 100 µM in assay [7], > 100 µM in assay [8], > 100 µM in assay [9] and 42.1 µM in assay [10].
For `O=C(NCCCN(CCCCN(CCCNC(=O)C(F)(F)F)Cc1ccc2ccccc2c1)Cc1ccc2ccccc2c1)C(F)(F)F`, the TGI is > 100 µM in assay [1]; > 100 µM in assay [2]; 4.54 µM in [3]; > 100 µM in [4]; > 100 µM in [5]; 3.38 µM in assay [7]. The TGI in assay [8] was > 100 µM; in [9], 2.57 µM; in [10], > 100 µM.
Turning to `CC1=C2C(=C[C@H]3[C@]4(C)CCCC(C)(C)[C@H]4CC[C@]34O[C@H]24)OC1=O`, the TGI in assay [1], in assay [2], in assay [3], in assay [4], in assay [5] and in assay [6] was > 100 µM in each case. Also, the TGI in assay [7], in assay [8] and in [9] was > 100 µM in each case.
For `COC(=O)CN1c2nc(C#N)c(C#N)nc2N(CC(=O)OC)c2nc(C#N)c(C#N)nc21`, the TGI in [1] is > 100 µM; in [2], > 36 µM; in assay [3], 5.31 µM; in [4], 3.74 µM; in assay [5] it was 3.77 µM; in [6], > 65.9 µM. The TGI in [7] is > 53.8 µM; in [8] it was 18.4 µM; in assay [9], 12.1 µM; in assay [10], 18.8 µM.
`NC(CC1=CS(=O)(=O)c2ccc(Cl)cc21)C(=O)O` (stereo not drawn): the TGI in [1], in [2], in [3], in assay [4], in assay [5] and in [6] was > 100 µM each time. Besides, the TGI in assay [7], in assay [8], in assay [9] and in assay [10] was > 100 µM in each case.
With `CCCCn1cnc2c(c(CC#N)nn2-c2ccccc2)c1=N`, the TGI in assay [1], in assay [2], in assay [3], in [4], in assay [5] and in [6] was > 100 µM in each case. For the same compound, the TGI in assay [7] is 46.7 µM; in [8] it was > 100 µM; in [9], > 100 µM; in [10] it was > 100 µM.
For the compound `Cc1ccc(CC[P+](=O)CCc2ccc(C)nc2)cn1`, the TGI in assay [1], in assay [2], in assay [3], in assay [4], in assay [5] and in assay [6] was > 100 µM in each case. For the same compound, the TGI in assay [7], in assay [8], in assay [9] and in assay [10] was > 100 µM in each case.
Turning to `C[C@@H](Cl)[C@H]1CCCN(Cc2ccc(Br)cc2)C1`, the TGI in [2], in [3], in [4], in [6], in assay [7] and in assay [8] was > 12.5 µM throughout. Besides, the TGI in assay [9] and in [10] was > 12.5 µM in each case.
For the compound `C=C1c2cc3c(cc2CC12Cc1cc4c(cc1C2=O)CCC4)CCC3` (stereo not drawn), the TGI in assay [2], in assay [3], in assay [4], in assay [5], in assay [6] and in [7] was > 100 µM each time. For the same compound, the TGI in assay [8], in [9] and in assay [10] was > 100 µM each time.
In the case of `O=c1ccn(C2OC(CO)C(P(=O)(O)O)C2O)c(=O)[nH]1` (stereo not drawn), the TGI in assay [1], in [2], in assay [3], in [4], in assay [5] and in assay [6] was > 100 µM throughout. Besides, the TGI in assay [7], in assay [8], in [9] and in [10] was > 100 µM in each case.
As for `C/C1=C\CC[C@@]2(C)O[C@@H]2C[C@@H](C2(C)CO2)CC/C(C)=C/CC1` (stereo partly drawn), the TGI in assay [1] is 33.5 µM; in assay [2] it was 25 µM; in [3], 54.7 µM; in [4], 52.6 µM; in assay [5], 45.5 µM; in assay [6] it was 41.3 µM. The TGI is 47.1 µM in [7], 82.2 µM in [8], > 100 µM in [9] and 48.9 µM in assay [10].
Consider `C(/C=C(\Nc1ccccc1)C12CC3CC(CC(C3)C1)C2)=Nc1ccccc1`, for which the TGI was found to be 36.2 µM in assay [1]; 28 µM in [2]; 32.6 µM in assay [3]; 24.3 µM in assay [4]; 27 µM in assay [5]; 33.9 µM in assay [6]. The TGI in assay [7] worked out at 28 µM; in assay [8], 33.1 µM; in [9] it was 27.6 µM; in [10] it was 21.1 µM.
As for `c1csc(-c2ccc(-c3cccs3)c3nsnc23)c1`, the TGI in assay [1] is > 100 µM; in [2], > 41.4 µM; in assay [3], > 100 µM; in assay [4] it was > 100 µM; in assay [5], > 100 µM; in assay [6] it was > 100 µM. Further, the TGI is > 55.5 µM in assay [7], > 100 µM in assay [8], > 100 µM in assay [9] and > 57.4 µM in [10].
Consider `C[C@]12CC[C@@H]3c4ccc(O)cc4CC[C@H]3[C@@H]1C/C(=C\c1ccncc1)[C@@H]2O`, for which the TGI in [1] was > 100 µM; in [2] it was 33.3 µM; in assay [3] it was > 100 µM; in assay [4], 20.1 µM; in assay [5], > 100 µM; in assay [6] it was > 100 µM. The TGI in assay [7] was 17.3 µM; in assay [8] it was 76.2 µM; in [9] it was > 100 µM; in [10], 30.9 µM.
Turning to `O=c1[nH]cnc2c1ncn2[C@@H]1C[C@@H]1CO`, the TGI in assay [1], in assay [2], in assay [3], in assay [4], in assay [5] and in assay [6] was > 100 µM each time. Moreover, the TGI in assay [7], in [8] and in assay [9] was > 100 µM in each case.
Turning to `O=C(Nc1ccccc1F)c1cc2ccc(O)cc2oc1=Nc1ccccc1F`, the TGI in assay [2] is 6.28 µM; in assay [3] it was 5.57 µM; in [4], 3.09 µM; in assay [5], 4.01 µM; in [6], 18.6 µM; in assay [7] it was 3.85 µM. For the same compound, the TGI in assay [8] is 7.61 µM; in assay [9], 32.9 µM; in assay [10], 3.83 µM.
Regarding `S=c1[nH]c2ccc(Br)cc2c(=S)s1`, the TGI in [1] is 46.5 µM; in assay [2], > 100 µM; in assay [3] it was 95.3 µM; in assay [4] it was 77.7 µM; in assay [5], 52.1 µM; in [6], > 100 µM. For the same compound, the TGI in assay [7] was 37.8 µM; in assay [8], 49.8 µM; in [9], > 100 µM; in assay [10], > 100 µM.
For `O=C(O)c1cc(-c2ccc3c(O)c(O)ccc3c2)ccc1O`, the TGI is 30.8 µM in assay [1]; > 75 µM in [2]; 70.6 µM in assay [3]; > 75 µM in assay [4]; 30.3 µM in [5]; > 75 µM in assay [6]. Moreover, the TGI was > 75 µM in assay [7], > 75 µM in assay [8], 42.5 µM in assay [9] and > 75 µM in [10].
Regarding `CCCCNC(=S)N/N=C/c1cccc(C)n1`, the TGI in [1] is > 100 µM; in assay [2], > 100 µM; in assay [3], 48.6 µM; in [4], 41.8 µM; in assay [5], 38.8 µM; in [6], > 100 µM. Also, the TGI in assay [7], in [8] and in [10] was > 100 µM each time.
`Cc1cc2c([N+](=O)[O-])cc3c(c2o1)C(=O)C=CC3=O`: the TGI worked out at 12.2 µM in assay [1]; 37.1 µM in assay [2]; 10.6 µM in assay [3]; 3.32 µM in assay [4]; 10.5 µM in assay [5]; 30.9 µM in assay [6]. Besides, the TGI amounted to 28.1 µM in [7], 30.7 µM in assay [8], 4.67 µM in assay [9] and 19 µM in [10].
Regarding `Cc1ccc([N+](=O)[O-])cc1N=NC(=O)NNc1cc([N+](=O)[O-])ccc1C`, the TGI is 74.3 µM in [2]; 53.5 µM in assay [3]; 29.7 µM in assay [4]; 36.8 µM in assay [5]; > 100 µM in [6]; 34.9 µM in [7]. In addition, the TGI was > 100 µM in assay [8], 45 µM in assay [9] and 39.9 µM in [10].
`Cc1c(N2C(=O)C(Cl)C2c2ccc(Cl)cc2)c(=O)n(-c2ccccc2)n1C` (stereo not drawn): the TGI in [1] was > 100 µM; in assay [3] it was > 100 µM; in [4], > 100 µM; in [5] it was 36 µM; in [7] it was > 100 µM; in assay [8], > 100 µM. Besides, the TGI in assay [9] and in assay [10] was > 100 µM in each case.
Regarding `C(=Nc1ccc(-c2nc3ccccc3o2)cc1)c1ccco1`, the TGI in [1], in assay [2], in assay [3], in assay [4], in [5] and in assay [6] was > 100 µM each time. The TGI in assay [7], in [8] and in assay [9] was > 100 µM each time.
For `COc1cc2cc(Oc3ccc(NC(=O)c4cc(C(F)(F)F)cc(C(F)(F)F)c4)cc3)c(C)nc2cc1OC`, the GI50 was 3.49 µM in assay [1]; 2.75 µM in assay [2]; 3.23 µM in assay [3]; 2.01 µM in assay [4]; 1.56 µM in [5]; 2.76 µM in assay [7]. In addition, the GI50 was 1.66 µM in assay [8], > 50 µM in [9] and 1.96 µM in assay [10]. The TGI in [1], in assay [2], in assay [3], in [4], in assay [5] and in [7] was > 50 µM each time. Further, the TGI in [8], in assay [9] and in [10] was > 50 µM in each case.
In the case of `CC(=O)c1cccn1/C=C(\OC(=O)OC(C)(C)C)c1ccc[nH]1`, the TGI in assay [1], in assay [2], in assay [3], in [4], in [5] and in [6] was > 100 µM throughout. The TGI in [7], in assay [8] and in assay [10] was > 100 µM throughout.
On to `Oc1[nH]c2ccc(Br)cc2c1N=NC(=S)Nc1ccc(F)cc1`, for which the TGI is > 100 µM in assay [1]; 11.8 µM in assay [2]; 38 µM in [4]; 18 µM in assay [5]; 24.7 µM in assay [7]; 39.1 µM in assay [8]. For the same compound, the results for the TGI in assay [9] and in [10] were 28 µM and 29 µM, respectively.
